Measurements reported in patent publication US10653688B2, “6-(6-membered heteroaryl and aryl)isoquinolin-3-yl carboxamides and preparation and use thereof” (Samumed, LLC, priority 2017, dated 2020).
pEC50: −log10 of the molar value.

Columns and labels:
[1] = test system: Wnt activity (SW480 colon carcinoma cells stably expressing the Sp5-Luc reporter gene); assay: Wnt activity screening assay (Sp5-Luc reporter gene assay); assay type: cell-based, human; conditions: Homo sapiens; for pEC50: 36 to 48 hours; for inhibition at 10 µM: read-out: percent inhibition at 10 μM (given for EC50 >10 μM), 10 μM
Procedure, shortened: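 EC50 values come from a variable-slope four-parameter fit of luminescence normalized to DMSO-only wells. The read-out follows 36–48 h incubation at 37 °C, 5% CO2, in DMEM containing 1% fetal bovine serum. Cells are hygromycin-selected SW480 stably expressing firefly luciferase under a Wnt-responsive Sp5 promoter (eight TCF/LEF sites).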

recombinant GSK3β kinase = recombinant GSK3β kinase (Homo sapiens (Human), UniProt P49841); assay: GSK3β kinase assay (Ser/Thr 09 peptide Z-lyte, FRET); assay type: biochemical; conditions: GSK3β kinase; head says EC50, method says IC50; ATP 46 μM;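 also: FRET read-out as coumarin over fluorescein emission ratio, compounds incubated one hour at room temperature, IC50 from dose-response curve fit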
Chain of recombinant GSK3β kinase (P49841 whole entry): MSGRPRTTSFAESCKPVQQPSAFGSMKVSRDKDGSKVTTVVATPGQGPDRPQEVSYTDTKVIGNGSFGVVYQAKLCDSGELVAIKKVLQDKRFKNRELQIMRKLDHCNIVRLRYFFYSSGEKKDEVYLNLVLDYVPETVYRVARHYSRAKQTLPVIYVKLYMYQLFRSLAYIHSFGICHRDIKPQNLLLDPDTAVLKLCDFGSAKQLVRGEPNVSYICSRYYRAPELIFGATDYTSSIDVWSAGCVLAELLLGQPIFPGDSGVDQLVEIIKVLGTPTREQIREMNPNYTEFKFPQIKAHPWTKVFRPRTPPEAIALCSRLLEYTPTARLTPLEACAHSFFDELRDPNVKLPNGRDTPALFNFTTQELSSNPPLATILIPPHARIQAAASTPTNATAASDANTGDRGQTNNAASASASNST
Description: Each compound is dissolved in DMSO as a 10 mM stock and used to prepare compound source plates. Serial dilution (1:3, 11-point dose-response curves from 10 M to 0.0003 M) and compound transfer was performed using the ECHO 550 (Labcyte, Sunnyvale, Calif.) into 1536-well black-walled round bottom plates (Corning).
This is a non-radioactive assay using fluorescence resonance energy transfer (FRET) between coumarin and fluorescein to detect kinase activity which is represented as ratio of coumarin emission/fluorescein emission.
The mixture is allowed to incubate with the representative compounds for one hour at room temperature. All reactions were performed in duplicate. Unphosphorylated (“0% Control”) and phosphorylated (“100% control”) forms of Ser/Thr 18 serve as control reactions.
After incubation, diluted Development Buffer is added to the reaction and allowed to further incubate for one hour at room temperature.
Dose-response curves are generated and inhibitory concentration (IC50) values are calculated using non-linear regression curve fit in the Dotmatics' Studies Software (Bishops Stortford, UK).

[2] = test system: LL29 cells (primary human fibroblasts derived from IPF patients), α-smooth muscle actin; assay: Inhibition of fibrotic process: TGF-β1-treated primary human fibroblasts, αSMA staining; assay type: cell-based; conditions: Homo sapiens, Fibroblast; for pEC50: 96 h, TGF-β1 20 ng/mL, 4 days, % cells positive for αSMA; for inhibition at 10 µM: read-out: percent inhibition at 10 μM (given for EC50 >10 μM), TGF-β1, αSMA, 10 μM;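 as to all read-outs here: controls were TGF-β1-stimulated wells with DMSO vehicle as the positive reference and cells given DMSO alone as the negative reference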
[3] = target: recombinant DYRK1A kinase (Homo sapiens (Human), UniProt Q13627); assay: DYRK1A kinase assay (Ser/Thr 18 peptide Z-lyte, FRET); conditions: DYRK1A kinase; head says EC50, method says IC50; ATP 30 μM
[4] = test system: IL-6 in human peripheral blood mononuclear cells (huPBMCs); assay: IL-6 inhibition in LPS-stimulated human peripheral blood mononuclear cells (HTRF); assay type: cell-based; conditions: Homo sapiens, PBMC; for pEC50: LPS 50 ng/mL, 22 hours, IL-6 HTRF; for inhibition at 10 µM: read-out: percent inhibition at 10 μM (given for EC50 >10 μM), LPS, IL-6, 10 μM
Procedure, shortened: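 Compound-treated huPBMCs (1×10e6 cells/mL, 1% FBS-RPMI) were stimulated after 2 h with LPS (50 ng/mL) for another 22 h at 37° C. An anti-IL-6 HTRF pair reported IL-6 as the 665/620 nm ratio; activity relative to DMSO, EC50 by 4-parameter Levenberg-Marquardt fitting, duplicates.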

[5] = test system: SW480 colon carcinoma cells; assay: Cell viability assay (CellTiter-Glo); assay type: cell-based, human; conditions: Homo sapiens, 96 h, four days, CellTiter-Glo

Structure (SMILES): CC(C)N1CCC(Nc2cncc(-c3ccc4cnc(NC(=O)c5ccc(F)cc5)cc4c3)n2)CC1 [Compound 119, 4-Fluoro-N-(6-(6-((1-isopropylpiperidin-4-yl)amino)pyrazin-2-yl)isoquinolin-3-yl)benzamide]
- pEC50 [1]: < 5.00
- inhibition at 10 µM [1]: 23.7%
- pEC50 (recombinant GSK3β kinase): < 5.00
- pEC50 [2]: < 5.00
- inhibition at 10 µM [2]: 7.7%
- pEC50 [3]: 8.70
- pEC50 [4]: < 5.00
- inhibition at 10 µM [4]: 6.1%
- pEC50 [5]: 5.04

Structure (SMILES): CN1CCN(c2cc(C(=O)Nc3cc4cc(-c5cncc(N(C)C)n5)ccc4cn3)ccn2)CC1 [Compound 120, N-(6-(6-(Dimethylamino)pyrazin-2-yl)isoquinolin-3-yl)-2-(4-methylpiperazin-1-yl)isonicotinamide]
- pEC50 [1]: 5.56
- pEC50 (recombinant GSK3β kinase): < 5.00
- pEC50 [2]: 6.21
- pEC50 [3]: 8.15
- pEC50 [4]: 5.05
- pEC50 [5]: 5.48

Structure (SMILES): CCN(CC)c1cncc(-c2ccc3cnc(NC(=O)c4ccnc(N5CCN(C)CC5)c4)cc3c2)n1 [Compound 121, N-(6-(6-(Diethylamino)pyrazin-2-yl)isoquinolin-3-yl)-2-(4-methylpiperazin-1-yl)isonicotinamide]
- pEC50 [1]: 5.98
- pEC50 (recombinant GSK3β kinase): < 5.00
- pEC50 [2]: 6.15
- pEC50 [3]: 8.22
- pEC50 [4]: 5.72
- pEC50 [5]: 5.54

Structure (SMILES): NC1CN(c2cncc(-c3ccc4cnc(NC(=O)c5ccc(F)cc5)cc4c3)n2)C1 [Compound 122, N-(6-(6-(3-aminoazetidin-1-yl)pyrazin-2-yl)isoquinolin-3-yl)-4-fluorobenzamide]
- pEC50 [1]: 5.21
- pEC50 (recombinant GSK3β kinase): < 5.00
- pEC50 [2]: < 5.00
- inhibition at 10 µM [2]: 4.8%
- pEC50 [3]: 7.96
- pEC50 [4]: 5.50
- pEC50 [5]: 5.05

Structure (SMILES): CN1CCN(c2cc(C(=O)Nc3cc4cc(-c5cncc(N6CCCC6)n5)ccc4cn3)ccn2)CC1 [Compound 123, 2-(4-Methylpiperazin-1-yl)-N-(6-(6-(pyrrolidin-1-yl)pyrazin-2-yl)isoquinolin-3-yl)isonicotinamide]
- pEC50 [1]: 5.45
- pEC50 (recombinant GSK3β kinase): < 5.00
- pEC50 [2]: 5.98
- pEC50 [3]: 7.89
- pEC50 [4]: < 5.00
- inhibition at 10 µM [4]: 20.9%
- pEC50 [5]: 5.08

Structure (SMILES): O=C(Nc1cc2cc(-c3cncc(OC4CNC4)n3)ccc2cn1)c1ccc(F)cc1 [Compound 125, N-(6-(6-(Azetidin-3-yloxy)pyrazin-2-yl)isoquinolin-3-yl)-4-fluorobenzamide]
- pEC50 [1]: 5.14
- pEC50 (recombinant GSK3β kinase): < 5.00
- pEC50 [2]: < 5.00
- inhibition at 10 µM [2]: 43.6%
- pEC50 [3]: 8.30
- pEC50 [4]: < 5.00
- inhibition at 10 µM [4]: 4.5%
- pEC50 [5]: 5.12

Structure (SMILES): CN1CCC(n2cc(C(=O)Nc3cc4cc(-c5cnc6[nH]ccc6c5)ccc4cn3)cn2)CC1 [Compound 126, N-(6-(1H-Pyrrolo[2,3-b]pyridin-5-yl)isoquinolin-3-yl)-1-(1-methylpiperidin-4-yl)-1H-pyrazole-4-carboxamide]
- pEC50 [1]: 7.01
- pEC50 (recombinant GSK3β kinase): < 5.00
- pEC50 [2]: 5.84
- pEC50 [3]: 7.66
- pEC50 [4]: 5.57
- pEC50 [5]: 6.11

Structure (SMILES): CN1CCC(n2cc(C(=O)Nc3cc4cc(-c5cnc6cc[nH]c6c5)ccc4cn3)cn2)CC1 [Compound 127, N-(6-(1H-Pyrrolo[3,2-b]pyridin-6-yl)isoquinolin-3-yl)-1-(1-methylpiperidin-4-yl)-1H-pyrazole-4-carboxamide]
- pEC50 [1]: 7.57
- pEC50 (recombinant GSK3β kinase): < 5.00
- pEC50 [2]: 6.57
- pEC50 [3]: 8.30
- pEC50 [4]: 5.81
- pEC50 [5]: 7.13

Structure (SMILES): CN1CCC(n2cc(C(=O)Nc3cc4cc(-c5cncc6[nH]ccc56)ccc4cn3)cn2)CC1 [Compound 128, N-(6-(1H-Pyrrolo[2,3-c]pyridin-4-yl)isoquinolin-3-yl)-1-(1-methylpiperidin-4-yl)-1H-pyrazole-4-carboxamide]
- pEC50 [1]: 7.89
- pEC50 (recombinant GSK3β kinase): 5.04
- pEC50 [2]: 6.99
- pEC50 [3]: 8.40
- pEC50 [4]: 6.17
- pEC50 [5]: 7.51

Structure (SMILES): CN1CCN(c2cc(C(=O)Nc3cc4cc(-c5cnc6[nH]ccc6c5)ccc4cn3)ccn2)CC1 [Compound 129, N-(6-(1H-Pyrrolo[2,3-b]pyridin-5-yl)isoquinolin-3-yl)-2-(4-methylpiperazin-1-yl)isonicotinamide]
- pEC50 [1]: 5.86
- pEC50 (recombinant GSK3β kinase): < 5.00
- pEC50 [2]: 6.16
- pEC50 [3]: 7.74
- pEC50 [4]: 5.47
- pEC50 [5]: 5.93

Structure (SMILES): CN1CCN(c2cc(C(=O)Nc3cc4cc(-c5cnc6cc[nH]c6c5)ccc4cn3)ccn2)CC1 [Compound 130, N-(6-(1H-Pyrrolo[3,2-b]pyridin-6-yl)isoquinolin-3-yl)-2-(4-methylpiperazin-1-yl)isonicotinamide]
- pEC50 [1]: 6.42
- pEC50 (recombinant GSK3β kinase): < 5.00
- pEC50 [2]: 6.03
- pEC50 [3]: 8.40
- pEC50 [4]: 5.41
- pEC50 [5]: 6.30

Structure (SMILES): CN1CCN(c2cc(C(=O)Nc3cc4cc(-c5cncc6[nH]ccc56)ccc4cn3)ccn2)CC1 [Compound 131, N-(6-(1H-Pyrrolo[2,3-c]pyridin-4-yl)isoquinolin-3-yl)-2-(4-methylpiperazin-1-yl)isonicotinamide]
- pEC50 [1]: 6.63
- pEC50 (recombinant GSK3β kinase): < 5.00
- pEC50 [2]: 6.22
- pEC50 [3]: 8.52
- pEC50 [4]: 5.54
- pEC50 [5]: 6.55

Structure (SMILES): Cc1cc2cc(-c3ccc4cnc(NC(=O)c5ccnc(N6CCN(C)CC6)c5)cc4c3)cnc2[nH]1 [Compound 133, N-(6-(2-Methyl-1H-pyrrolo[2,3-b]pyridin-5-yl)isoquinolin-3-yl)-2-(4-methylpiperazin-1-yl)isonicotinamide]
- pEC50 [1]: 5.39
- pEC50 (recombinant GSK3β kinase): < 5.00
- pEC50 [2]: 5.39
- pEC50 [3]: 7.24
- pEC50 [4]: 5.48
- pEC50 [5]: 5.43

Structure (SMILES): Cc1c[nH]c2ncc(-c3ccc4cnc(NC(=O)c5ccnc(N6CCN(C)CC6)c5)cc4c3)cc12 [Compound 134, N-(6-(3-Methyl-1H-pyrrolo[2,3-b]pyridin-5-yl)isoquinolin-3-yl)-2-(4-methylpiperazin-1-yl)isonicotinamide]
- pEC50 [1]: 5.21
- pEC50 (recombinant GSK3β kinase): < 5.00
- pEC50 [2]: 5.56
- pEC50 [3]: 7.27
- pEC50 [4]: 5.05
- pEC50 [5]: 5.41

Structure (SMILES): CN1CCN(c2cc(C(=O)Nc3cc4cc(-c5cnc6[nH]ccc6n5)ccc4cn3)ccn2)CC1 [Compound 136, N-(6-(5H-Pyrrolo[2,3-b]pyrazin-2-yl)isoquinolin-3-yl)-2-(4-methylpiperazin-1-yl)isonicotinamide]
- pEC50 [1]: 5.76
- pEC50 (recombinant GSK3β kinase): < 5.00
- pEC50 [2]: 6.03
- pEC50 [3]: 7.42
- pEC50 [4]: 5.04
- pEC50 [5]: 5.90

Structure (SMILES): CN1CCN(c2cc(C(=O)Nc3cc4cc(-c5cnc6cc[nH]c6n5)ccc4cn3)ccn2)CC1 [Compound 137, N-(6-(5H-Pyrrolo[2,3-b]pyrazin-3-yl)isoquinolin-3-yl)-2-(4-methylpiperazin-1-yl)isonicotinamide]
- pEC50 [1]: < 5.00
- inhibition at 10 µM [1]: 19.8%
- pEC50 (recombinant GSK3β kinase): < 5.00
- pEC50 [2]: < 5.00
- inhibition at 10 µM [2]: 34.2%
- pEC50 [3]: 7.57
- pEC50 [4]: < 5.00
- inhibition at 10 µM [4]: 3.9%
- pEC50 [5]: 5.92

Structure (SMILES): CC(C)n1cc(C(=O)Nc2cc3cc(-c4cncc(NC5CCNCC5)n4)ccc3cn2)cn1 [Compound 138, 1-Isopropyl-N-(6-(6-(piperidin-4-ylamino)pyrazin-2-yl)isoquinolin-3-yl)-1H-pyrazole-4-carboxamide]
- pEC50 [1]: 7.41
- pEC50 (recombinant GSK3β kinase): < 5.00
- pEC50 [2]: 7.11
- pEC50 [3]: 8.70
- pEC50 [4]: 5.56
- pEC50 [5]: 7.15

Structure (SMILES): CC(C)n1cc(C(=O)Nc2cc3cc(-c4cncc(NC5CCN(C)CC5)n4)ccc3cn2)cn1 [Compound 139, 1-Isopropyl-N-(6-(6-((1-methylpiperidin-4-yl)amino)pyrazin-2-yl)isoquinolin-3-yl)-1H-pyrazole-4-carboxamide]
- pEC50 [1]: 7.49
- pEC50 (recombinant GSK3β kinase): < 5.00
- pEC50 [2]: 6.83
- pEC50 [3]: 8.70
- pEC50 [4]: 6.44
- pEC50 [5]: 7.28

Structure (SMILES): O=C(Nc1cc2cc(-c3cccnc3)ccc2cn1)c1coc(C2CCNCC2)n1 [Compound 140, 2-(Piperidin-4-yl)-N-(6-(pyridin-3-yl)isoquinolin-3-yl)oxazole-4-carboxamide]
- pEC50 [1]: < 5.00
- inhibition at 10 µM [1]: 6.6%
- pEC50 (recombinant GSK3β kinase): < 5.00
- pEC50 [2]: 5.78
- pEC50 [3]: 5.98
- pEC50 [4]: 5.47
- pEC50 [5]: 6.14

Structure (SMILES): O=C(Nc1cc2cc(-c3cncc(F)c3)ccc2cn1)c1coc(C2CCNCC2)n1 [Compound 141, N-(6-(5-Fluoropyridin-3-yl)isoquinolin-3-yl)-2-(piperidin-4-yl)oxazole-4-carboxamide]
- pEC50 [1]: 5.40
- pEC50 (recombinant GSK3β kinase): < 5.00
- pEC50 [2]: 5.82
- pEC50 [3]: 6.51
- pEC50 [4]: 5.05
- pEC50 [5]: 5.23
